Experimental data reported in patent US20240067693A1, “POLYPEPTIDES AND USES THEREOF” (MEDIMMUNE LIMITED, priority 2020, published 2024).
Numbered stars: 1 amine (or outer) side, 2 acyl side, 3 side chain; on linkers, the order of the positions; unused ones are H or OH. Bridge positions count the residues as written; N and C are the ends. Square brackets hold non-standard residues; d marks the D form. Side chains are listed from the residue outwards. Peptide text beside a SMILES is read from it. * marks the point of attachment. C18 diacid = O=C(O)CCCCCCCCCCCCCCCCC(=O)*; γGlu = O=C(O)[C@H](CCC(=O)[*:2])N[*:1]; Aib = CC(C)(N)C(=O)O

What was measured:
[1] = molecular target: T1, human amylin receptor (calcitonin receptor co-expressed with receptor activity modifying protein, RAMP3) (hAMYR3) (Homo sapiens, UniProt O60896+P30988); assay: cAMP production in 1321N1 cells with stable recombinant expression of human amylin receptor (hAMYR3); format: cell-based; conditions: for Ratio (selectivity hAMYR vs hCTR, ratio of EC50 values at the two receptors): EC50 hCTR / EC50 hAMYR3; for EC50: cAMP, 1321N1 cells, assay buffer with 0.1% BSA, read-out: EC50 (pM) hAMYR3
T1 construct: expressed in transfected cells
T1 sequence (P30988 25-474): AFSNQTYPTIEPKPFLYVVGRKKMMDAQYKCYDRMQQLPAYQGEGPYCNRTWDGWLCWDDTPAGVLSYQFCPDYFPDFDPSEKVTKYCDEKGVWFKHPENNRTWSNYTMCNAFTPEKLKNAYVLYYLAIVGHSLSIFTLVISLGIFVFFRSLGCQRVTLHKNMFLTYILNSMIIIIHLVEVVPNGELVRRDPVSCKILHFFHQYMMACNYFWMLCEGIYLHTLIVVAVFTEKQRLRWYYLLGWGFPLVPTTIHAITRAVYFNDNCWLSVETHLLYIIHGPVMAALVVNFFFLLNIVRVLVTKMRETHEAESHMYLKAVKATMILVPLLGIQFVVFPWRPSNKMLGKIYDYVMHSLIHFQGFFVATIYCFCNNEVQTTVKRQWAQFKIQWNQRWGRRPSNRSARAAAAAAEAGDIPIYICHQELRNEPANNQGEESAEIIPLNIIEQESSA
T1 sequence (O60896 24-148 partner): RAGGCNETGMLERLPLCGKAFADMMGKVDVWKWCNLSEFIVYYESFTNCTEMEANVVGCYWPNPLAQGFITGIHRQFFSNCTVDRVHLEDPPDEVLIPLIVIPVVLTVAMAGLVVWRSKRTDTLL
Procedure, shortened: (§1)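 Receptor-expressing cells (human receptors in 1321N1, rat receptors in HEK) incubated 30 min at room temperature with peptide in HBSS/HEPES pH 7.4, 0.1% BSA, 0.5 mM IBMX. cAMP read by HTRF; EC50 from 4-parameter fit as % of maximal amylin or calcitonin response.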

[2] = molecular target: T2, human calcitonin receptor (hCTR) (Homo sapiens, UniProt P30988); assay: cAMP production in 1321N1 cells with stable recombinant expression of human calcitonin receptor (hCTR); format: cell-based; conditions: cAMP, 1321N1 cells, assay buffer with 0.1% BSA; read-out: EC50 (pM) hCTR
T2 construct: expressed in transfected cells
T2 sequence (P30988 25-474): T1 sequence (P30988 25-474)
Procedure, shortened: as §1

[3] = Pharmacokinetic determination via IV and SC administration in Sprague Dawley rats; conditions: male, rat, plasma, 20 nmol/kg

Row | Ratio (selectivity hAMYR vs hCTR, ratio of EC50 values at the two receptors) [1] | EC50 [1] [pM] | EC50 [2] [pM] | half-life ([3]; iv) [h] | half-life ([3]; sc) [h] | SMILES
1 | 22 | 284 | 6260 | 8.9 | 11 | CC[C@H](C)[C@H](NC(=O)[C@@H]1CCCN1C(=O)CNC(=O)[C@H](Cc1ccccc1)NC(=O)[C@H](CC(N)=O)NC(=O)C(C)(C)NC(=O)[C@H](CO)NC(=O)[C@H](CO)NC(=O)[C@H](Cc1c[nH]cn1)NC(=O)[C@H](CCCNC(=N)N)NC(=O)[C@H](CC(C)C)NC(=O)[C@H](Cc1ccccc1)NC(=O)[C@H](CC(N)=O)NC(=O)[C@H](C)NC(=O)[C@H](CC(C)C)NC(=O)[C@H](CCCNC(=N)N)NC(=O)[C@H](CCC(N)=O)NC(=O)[C@@H](NC(=O)[C@H](C)NC(=O)[C@@H]1CSSC[C@H](NC(=O)[C@@H](N)CCCCNC(=O)CC[C@H](NC(=O)CCCCCCCCCCCCCCCCC(=O)O)C(=O)O)C(=O)N[C@@H](CC(N)=O)C(=O)N[C@@H]([C@@H](C)O)C(=O)N[C@@H](C)C(=O)N[C@@H]([C@@H](C)O)C(=O)N1)[C@@H](C)O)C(=O)N[C@@H](CC(C)C)C(=O)N1CCC[C@H]1C(=O)N1CCC[C@H]1C(=O)N[C@H](C(=O)N[C@@H](CCC(=O)O)C(=O)N[C@H](C(=O)NCC(=O)N[C@@H](CO)C(=O)N[C@@H](CC(N)=O)C(=O)N[C@H](C(=O)N[C@@H](Cc1ccc(O)cc1)C(N)=O)[C@@H](C)O)C(C)C)[C@@H](C)O [Peptide 44, K(γE-C18diacid)[CNTATC]ATQRLANFLRHSS(Aib)NFGPILPPTEVGSNTY-amide] (H-K([γGlu-C18 diacid])CNTATCATQRLANFLRHSS[Aib]NFGPILPPTEVGSNTY-NH2; disulfide 2-7; N-terminus assumed)
2 | 42 | 126 | 5270 | 5.6 | 8.1 | CC[C@H](C)[C@H](NC(=O)[C@@H]1CCCN1C(=O)CNC(=O)[C@H](Cc1ccccc1)NC(=O)[C@H](CC(N)=O)NC(=O)C(C)(C)NC(=O)[C@H](CO)NC(=O)[C@H](CO)NC(=O)[C@H](Cc1c[nH]cn1)NC(=O)[C@H](CCCNC(=N)N)NC(=O)[C@H](CC(C)C)NC(=O)[C@H](Cc1ccccc1)NC(=O)[C@H](CC(N)=O)NC(=O)[C@H](C)NC(=O)[C@H](CC(C)C)NC(=O)[C@H](CCCNC(=N)N)NC(=O)[C@H](CCC(N)=O)NC(=O)[C@@H](NC(=O)[C@H](C)NC(=O)[C@@H]1CSSC[C@H](NC(=O)[C@@H](N)CCCCNC(=O)CC[C@H](NC(=O)CCCCCCCCCCCCCCCCC(=O)O)C(=O)O)C(=O)N[C@@H](CC(N)=O)C(=O)N[C@@H]([C@@H](C)O)C(=O)N[C@@H](C)C(=O)N[C@@H]([C@@H](C)O)C(=O)N1)[C@@H](C)O)C(=O)N[C@@H](CC(C)C)C(=O)N1CCC[C@H]1C(=O)N1CCC[C@H]1C(=O)N[C@H](C(=O)N[C@@H](CC(N)=O)C(=O)N[C@H](C(=O)NCC(=O)N[C@@H](CO)C(=O)N[C@@H](CC(N)=O)C(=O)N[C@H](C(=O)N[C@@H](Cc1ccc(O)cc1)C(N)=O)[C@@H](C)O)C(C)C)[C@@H](C)O [Peptide 48, K(γE-C18diacid)[CNTATC]ATQRLANFLRHSS(Aib)NFGPILPPTNVGSNTY-amide] (H-K([γGlu-C18 diacid])CNTATCATQRLANFLRHSS[Aib]NFGPILPPTNVGSNTY-NH2; disulfide 2-7; N-terminus assumed)
3 | 10.4 | 553 | 5750 | 10.3 | 9 | CC[C@H](C)[C@H](NC(=O)[C@@H]1CCCN1C(=O)CNC(=O)[C@H](Cc1ccccc1)NC(=O)[C@H](CC(N)=O)NC(=O)[C@H](CC(N)=O)NC(=O)[C@H](CO)NC(=O)[C@H](CO)NC(=O)[C@H](Cc1c[nH]cn1)NC(=O)C(C)(C)NC(=O)[C@H](CC(C)C)NC(=O)[C@H](Cc1ccccc1)NC(=O)[C@H](CC(N)=O)NC(=O)[C@H](C)NC(=O)[C@H](CC(C)C)NC(=O)[C@H](CCCNC(=N)N)NC(=O)[C@H](CCC(N)=O)NC(=O)[C@@H](NC(=O)[C@H](C)NC(=O)[C@@H]1CSSC[C@H](NC(=O)[C@H](CCCCN)NC(=O)[C@@H](N)CCCCNC(=O)CC[C@H](NC(=O)CCCCCCCCCCCCCCCCC(=O)O)C(=O)O)C(=O)N[C@@H](CC(N)=O)C(=O)N[C@@H]([C@@H](C)O)C(=O)N[C@@H](C)C(=O)N[C@@H]([C@@H](C)O)C(=O)N1)[C@@H](C)O)C(=O)N[C@@H](CC(C)C)C(=O)N1CCC[C@H]1C(=O)N1CCC[C@H]1C(=O)N[C@H](C(=O)N[C@@H](CC(N)=O)C(=O)N[C@H](C(=O)NCC(=O)N[C@@H](CO)C(=O)N[C@@H](CC(N)=O)C(=O)N[C@H](C(=O)N[C@@H](Cc1ccc(O)cc1)C(N)=O)[C@@H](C)O)C(C)C)[C@@H](C)O [Peptide 129] (H-K([γGlu-C18 diacid])KCNTATCATQRLANFL[Aib]HSSNNFGPILPPTNVGSNTY-NH2; disulfide 3-8; N-terminus assumed)
